Data on eleven molecules can be found in patent US10093630B2, “Pyrazole compounds and methods of making and using same” (ABIDE THERAPEUTICS, INC., priority 2014, dated 2018).

What all share (assay): In vitro competitive activity-based protein profiling (gel-based, FP-Rh or HT-01 probe)
Common to all, as to assay type: biochemical

One test has as its target T1, MAGL (Mus musculus, UniProt O35678).
T1 construct: Proteomes (mouse brain membrane fraction or cell lysates); from tissue; host or cells: mouse brain membrane fraction (or cell lysates, not specified)
T1 sequence (O35678 1-303): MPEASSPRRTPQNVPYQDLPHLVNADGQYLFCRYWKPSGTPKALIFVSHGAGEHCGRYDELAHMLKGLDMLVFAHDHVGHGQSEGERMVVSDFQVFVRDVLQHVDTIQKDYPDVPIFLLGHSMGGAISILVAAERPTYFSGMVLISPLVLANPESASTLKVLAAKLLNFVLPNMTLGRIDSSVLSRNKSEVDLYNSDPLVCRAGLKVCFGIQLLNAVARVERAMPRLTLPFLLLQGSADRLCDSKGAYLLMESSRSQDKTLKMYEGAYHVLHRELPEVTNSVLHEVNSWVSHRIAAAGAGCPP
The following applies: for inhibition at 1 µM: 1 μM inhibitor; for inhibition at 10 µM: 10 μM inhibitor; for IC50: mouse brain membrane fraction or cell lysates, 30 min preincubation at 37° C., read-out: Mouse (IC50 value, nM) MAGL. Summed up: (§1)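 Gel-based read-out: fluorescent band intensity after SDS-PAGE reflected remaining hydrolase activity. Inhibitors were preincubated 30 min at 37° C with 1.0 mg/mL mouse brain membrane or lysate proteome before a further 30 min at 37° C with FP-Rh or HT-01 probe.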

For another test, the target named is T2, FAAH (Mus musculus, UniProt O08914).
T2 construct: Proteomes (mouse brain membrane fraction or cell lysates); from tissue; host or cells: mouse brain membrane fraction (or cell lysates, not specified)
T2 sequence (O08914 1-579): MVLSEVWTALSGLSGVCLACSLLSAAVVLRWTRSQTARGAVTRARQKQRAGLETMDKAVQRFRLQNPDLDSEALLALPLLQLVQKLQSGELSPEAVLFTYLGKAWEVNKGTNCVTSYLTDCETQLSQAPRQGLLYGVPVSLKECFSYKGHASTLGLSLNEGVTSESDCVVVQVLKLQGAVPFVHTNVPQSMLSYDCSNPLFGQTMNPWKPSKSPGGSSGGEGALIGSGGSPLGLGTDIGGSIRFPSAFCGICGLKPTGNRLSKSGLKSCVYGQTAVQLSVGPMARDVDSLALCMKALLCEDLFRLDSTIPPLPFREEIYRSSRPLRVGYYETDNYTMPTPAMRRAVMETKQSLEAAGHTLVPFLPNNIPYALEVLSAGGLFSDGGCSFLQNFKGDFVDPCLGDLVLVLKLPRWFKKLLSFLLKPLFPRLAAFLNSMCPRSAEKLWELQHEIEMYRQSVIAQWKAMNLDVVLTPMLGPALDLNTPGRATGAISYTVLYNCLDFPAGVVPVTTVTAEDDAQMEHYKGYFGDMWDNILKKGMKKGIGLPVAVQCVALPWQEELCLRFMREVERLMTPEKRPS
The note with it: for inhibition at 1 µM: 1 μM inhibitor, read-out: % Inhibition at 1 μM, B = FAAH; for inhibition at 10 µM: 10 μM inhibitor, read-out: % Inhibition at 10 μM, B = FAAH; for IC50: mouse brain membrane fraction or cell lysates, 30 min preincubation at 37° C., read-out: Mouse (IC50 value, nM) FAAH. An outline of the steps: as §1

Another test concerns the target T3, ABHD6 (Mus musculus, UniProt Q8R2Y0).
T3 construct: Proteomes (mouse brain membrane fraction or cell lysates); from tissue; host or cells: mouse brain membrane fraction (or cell lysates, not specified)
T3 sequence (Q8R2Y0 1-336): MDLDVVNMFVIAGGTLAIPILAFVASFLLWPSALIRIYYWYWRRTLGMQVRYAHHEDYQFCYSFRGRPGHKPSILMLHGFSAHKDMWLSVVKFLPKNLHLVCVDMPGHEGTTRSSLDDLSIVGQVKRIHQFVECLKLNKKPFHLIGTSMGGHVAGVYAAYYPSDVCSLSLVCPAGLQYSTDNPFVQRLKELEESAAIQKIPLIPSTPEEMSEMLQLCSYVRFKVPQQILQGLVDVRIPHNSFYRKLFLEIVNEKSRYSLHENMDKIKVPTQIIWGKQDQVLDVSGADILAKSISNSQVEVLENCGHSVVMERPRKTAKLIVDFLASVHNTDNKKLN
The following applies: for inhibition at 1 µM: 1 μM inhibitor, read-out: % Inhibition at 1 μM, C = ABHD6; for inhibition at 10 µM: 10 μM inhibitor, read-out: % Inhibition at 10 μM, C = ABHD6; for IC50: mouse brain membrane fraction or cell lysates, 30 min preincubation at 37° C., read-out: Mouse (IC50 value, nM) ABHD6. Summed up:
as §1

Another test has as its target T4, PLA2G7 (Mus musculus, UniProt Q60963).
T4 construct: Proteomes (mouse brain membrane fraction or cell lysates); from tissue; host or cells: mouse brain membrane fraction (or cell lysates, not specified)
T4 sequence (Q60963 22-440): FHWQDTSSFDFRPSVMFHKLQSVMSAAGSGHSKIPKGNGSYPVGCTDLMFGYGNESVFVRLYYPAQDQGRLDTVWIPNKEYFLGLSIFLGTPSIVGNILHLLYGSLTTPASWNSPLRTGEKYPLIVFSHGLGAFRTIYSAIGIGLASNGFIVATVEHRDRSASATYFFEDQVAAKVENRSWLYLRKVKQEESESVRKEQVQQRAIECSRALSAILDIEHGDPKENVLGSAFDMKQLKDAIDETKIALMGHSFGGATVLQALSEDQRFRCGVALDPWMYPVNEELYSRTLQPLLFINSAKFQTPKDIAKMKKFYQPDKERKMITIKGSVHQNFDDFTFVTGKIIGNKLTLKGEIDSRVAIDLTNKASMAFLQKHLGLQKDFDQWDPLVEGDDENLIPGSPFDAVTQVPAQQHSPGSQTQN
The note with it: for inhibition at 1 µM: 1 μM inhibitor, read-out: % Inhibition at 1 μM, D = PLA2G7; for inhibition at 10 µM: 10 μM inhibitor, read-out: % Inhibition at 10 μM, D = PLA2G7; for IC50: mouse brain membrane fraction or cell lysates, 30 min preincubation at 37° C. An outline of the steps:
as §1

Read-outs that look alike come from different tables or passages of the source.

The term inhibition denotes the percentage by which the read-out fell short of the control. For orientation: IC50 means the concentration at which inhibition is half-maximal.

Consider `O=C(N1CCN(Cc2ccc(Cl)c(Cl)c2)CC1)n1cc(Cl)cn1` [Example 211, (4-Chloro-1H-pyrazol-1-yl)(4-(3,4-dichlorobenzyl)piperazin-1-yl)methanone], for which the inhibition at 1 µM at MAGL was over 75%; on FAAH, over 75%; on ABHD6, over 75%; on PLA2G7, under 25%. The inhibition at 10 µM at MAGL, on FAAH, at ABHD6 and on PLA2G7 was over 75% each time. The IC50 at MAGL, on FAAH and on ABHD6 was under 100 nM in each case.

As to `CCN(Cc1ccc(N2CCOCC2)cc1)C(=O)n1cc(C)cn1` [Example 265, N-Ethyl-4-methyl-N-(4-morpholinobenzyl)-1H-pyrazole-1-carboxamide], the inhibition at 1 µM at MAGL (gel-based competitive ABPP), at FAAH (gel-based competitive ABPP), at ABHD6 (gel-based competitive ABPP) and at PLA2G7 (gel-based competitive ABPP) was under 25% each time.

For the molecule `CCN(Cc1ccc(Cl)cc1)C(=O)n1cc(C)cn1` [Example 254, N-(4-Chlorobenzyl)-N-ethyl-4-methyl-1H-pyrazole-1-carboxamide], the inhibition at 1 µM at MAGL (gel-based competitive ABPP), on FAAH (gel-based competitive ABPP), at ABHD6 (gel-based competitive ABPP) and at PLA2G7 (gel-based competitive ABPP) was under 25% each time.

On to `O=C(N1CCN(Cc2cccc(OCc3ccccc3)c2)CC1)n1cccn1` [Example 296, (4-(3-(Benzyloxy)benzyl)piperazin-1-yl)(1H-pyrazol-1-yl)methanone], for which the inhibition at 1 µM at MAGL (gel-based competitive ABPP) is over 75%; at FAAH (gel-based competitive ABPP) it was over 75%; at ABHD6 (gel-based competitive ABPP), over 75%; at PLA2G7 (gel-based competitive ABPP), under 25%.

For the molecule `CCN(Cc1cccc(N2CCOCC2)c1)C(=O)n1cc(Cl)cn1` [Example 266, 4-Chloro-N-ethyl-N-(3-morpholinobenzyl)-1H-pyrazole-1-carboxamide], the inhibition at 1 µM was under 25% at MAGL (gel-based competitive ABPP), over 75% on FAAH (gel-based competitive ABPP), under 25% on ABHD6 (gel-based competitive ABPP) and under 25% at PLA2G7 (gel-based competitive ABPP). Besides, the inhibition at 10 µM is over 75% on MAGL (gel-based competitive ABPP), over 75% at FAAH (gel-based competitive ABPP), over 75% on ABHD6 (gel-based competitive ABPP) and under 25% at PLA2G7 (gel-based competitive ABPP). Moreover, the IC50 on MAGL is over 1000 nM; on FAAH, 100 to 1000 nM; on ABHD6, over 1000 nM; at PLA2G7 it was over 1000 nM.

Consider `O=C(N1CCN(Cc2ccc(-c3ccccc3)cc2OCc2ccccc2)CC1)n1cc(C(F)(F)F)cn1` [Example 147, (4-((3-(Benzyloxy)biphenyl-4-yl)methyl)piperazin-1-yl)(4-(trifluoromethyl)-1H-pyrazol-1-yl)methanone], for which the inhibition at 1 µM on MAGL was over 75%; on FAAH it was over 75%; at ABHD6 it was over 75%; at PLA2G7, under 25%. Moreover, the inhibition at 10 µM on MAGL, at FAAH, at ABHD6 and at PLA2G7 was over 75% in each case.

For the molecule `O=C(N1CCN(Cc2cccc(C(F)(F)F)c2)CC1)n1cc(C(F)(F)F)cn1` [Example 272, (4-(Trifluoromethyl)-1H-pyrazol-1-yl)(4-(3-(trifluoromethyl)benzyl)piperazin-1-yl)methanone], the inhibition at 1 µM at MAGL (gel-based competitive ABPP), at FAAH (gel-based competitive ABPP), on ABHD6 (gel-based competitive ABPP) and at PLA2G7 (gel-based competitive ABPP) was over 75% in each case. In addition, the IC50 on MAGL was under 100 nM; on FAAH it was under 100 nM; at ABHD6, under 100 nM; on PLA2G7, 100 to 1000 nM.

Take `O=C(N1CCN(Cc2ccccc2F)CC1)n1cc(C(F)(F)F)cn1` [Example 276, (4-(2-Fluorobenzyl)piperazin-1-yl)(4-(trifluoromethyl)-1H-pyrazol-1-yl)methanone]: the inhibition at 1 µM at MAGL (gel-based competitive ABPP), on FAAH (gel-based competitive ABPP), at ABHD6 (gel-based competitive ABPP) and at PLA2G7 (gel-based competitive ABPP) was over 75% each time. Moreover, the IC50 at MAGL, at FAAH, on ABHD6 and at PLA2G7 was under 100 nM throughout.

Turning to `N#Cc1cnn(C(=O)N2CCN(Cc3ccc(-c4ccccc4)cc3OCc3ccccc3)CC2)c1` [Example 146, 1-(4-((3-(Benzyloxy)biphenyl-4-yl)methyl)piperazine-1-carbonyl)-1H-pyrazole-4-carbonitrile], the inhibition at 1 µM at MAGL was over 75%; at FAAH, over 75%; on ABHD6, over 75%; at PLA2G7, under 25%. Further, the inhibition at 10 µM at MAGL, on FAAH, at ABHD6 and on PLA2G7 was over 75% throughout.

`NC(=O)c1cnn(C(=O)N2CCN(Cc3ccc(Cl)cc3)CC2)c1` [Example 204, 1-(4-(4-chlorobenzyl)piperazine-1-carbonyl)-1H-pyrazole-4-carboxamide]: the inhibition at 1 µM on MAGL was over 75%; on FAAH, over 75%; at ABHD6, over 75%; at PLA2G7 it was under 25%. Further, the IC50 at MAGL was under 100 nM; on FAAH it was 100 to 1000 nM; at ABHD6, under 100 nM; on PLA2G7, over 1000 nM.

`CC(=O)N1CCCN(C(=O)n2cc(C(F)(F)F)cn2)CC1` [Example 154, 1-(4-(4-(trifluoromethyl)-1H-pyrazole-1-carbonyl)-1,4-diazepan-1-yl)ethanone]: the inhibition at 1 µM is under 25% at MAGL, under 25% at FAAH, under 25% at ABHD6 and 25 to 75% on PLA2G7. In addition, the inhibition at 10 µM on MAGL is under 25%; at FAAH it was 25 to 75%; on ABHD6, over 75%; on PLA2G7, over 75%.
